We go through 11 molecules from patent publication US7241795B2, “Synthesis and antimicrobial activity of novel dicationic “reversed amidines”” (The University of North Carolina at Chapel Hill, priority 2000, dated 2007).

One assay deals with poly dA•dT. Put plainly: DNA thermal melting (ΔTm). The class given is binding.
For the next assay, the system named is d(CGCGAATTCGCG)2. Put plainly: DNA thermal melting (ΔTm). It counts as binding. Conditions: oligo = d(CGCGAATTCGCG)2.
For the next assay, the system named is Candida albicans. Description: Antifungal broth macrodilution susceptibility testing (MIC/MFC), yeast. The class given is cell-based. Particulars: for MFC / MIC: Candida albicans; for MFC: read-out: C. albicans MFC; for MIC: read-out: C. albicans MIC.
The next assay deals with Aspergillus fumigatus. Put plainly: Antifungal broth macrodilution susceptibility testing (MIC/MFC), mold. The class given is cell-based. Particulars: Aspergillus fumigatus, strain 168.95; for MFC: read-out: Aspergillus fumigatus MFC; for MIC: read-out: Aspergillus fumigatus MIC.
For a further assay, the system named is M. tuberculosis H37Rv. Put plainly: Microplate Alamar Blue Assay (MABA) in BACTEC 12B medium. The class given is cell-based, Mycobacterium tuberculosis. Conditions: lowest concentration effecting ≧90% reduction of fluorescence; for MIC: Mycobacterium tuberculosis, H37RV, read-out: MTb MIC.
Where [1] appears, read: reference strain C. albicans A39.

The structures appear in SMILES notation. In brackets after ≈: the same amount, converted by molar mass. A value given as a limit tells only on which side of the number the result lay.

With `N=C(N)c1ccc(-c2ccc(-c3ccc(C(=N)N)cc3)o2)cc1` [2,5-bis [4-amidinophenyl]furan, reference compound], the “DNA Affinities ΔTm (AT)” value in the assay with poly dA•dT was 25. Moreover, the “DNA Affinities ΔTm (oligo)” value with d(CGCGAATTCGCG)2 is listed as 11.7.

As usually defined, the MFC is the lowest tested concentration that kills the fungus rather than only halting it. Broadly, the MIC is the lowest concentration that inhibits growth of the organism. Take `Cl.Cl.N=C(N)Nc1ccc(-c2ccc(-c3ccc(NC(=N)N)cc3)o2)cc1` [Compound 5a, 2,5-Bis(4-guanidinophenyl)furan dihydrochloride]: the “activity against C. albicans, in words” value in the assay with Candida albicans was “fungicidal”. Also, the figures for the minimum fungicidal concentration (MFC) in the assay with Candida albicans (setting [1]) and with Aspergillus fumigatus were 25 µg/mL and > 100 µg/mL, respectively. In the assay on poly dA•dT, the “DNA Affinities ΔTm (AT)” value was 21.6. Besides, the “DNA Affinities ΔTm (oligo)” value in the assay on d(CGCGAATTCGCG)2 is 10.8. Besides, the MIC with Aspergillus fumigatus was determined as 100 µg/mL.

As to `COc1cc(NC(=N)N)ccc1-c1ccc(-c2ccc(NC(=N)N)cc2OC)o1.Cl.Cl` [Compound 5c, 2,5-Bis(4-guanidino-2-methoxyphenyl)furan dihydrochloride], the MIC turned out to be 16 µg/mL in the assay with M. tuberculosis H37Rv, 10 µg/mL with Candida albicans (setting [1]) and 100 µg/mL with Aspergillus fumigatus. Moreover, the MFC with Candida albicans (setting [1]) and in the assay on Aspergillus fumigatus was 100 µg/mL each time. In addition, the “DNA Affinities ΔTm (AT)” value in the assay on poly dA•dT is given as 15.2. In addition, in the assay on d(CGCGAATTCGCG)2, the “DNA Affinities ΔTm (oligo)” value is listed as 2.8.

Regarding `Cl.Cl.N=C(N)Nc1ccc(-c2ccc(-c3ccc(NC(=N)N)cc3C(F)(F)F)o2)c(C(F)(F)F)c1` [Compound 5e, 2,5-Bis (4-guanidino-2-trifluoromethylphenyl) furan dihydrochloride], the MIC in the assay on M. tuberculosis H37Rv stood at 8 µg/mL; in the assay with Candida albicans (setting [1]), 10 µg/mL; in the assay on Aspergillus fumigatus, 100 µg/mL. Besides, the MFC with Candida albicans (setting [1]) amounted to 10 µg/mL; in the assay with Aspergillus fumigatus, 100 µg/mL. In the assay on poly dA•dT, the “DNA Affinities ΔTm (AT)” value is on record as 5.9.

As to `Cc1cc(NC(=N)N)cc(C)c1-c1ccc(-c2c(C)cc(NC(=N)N)cc2C)o1.Cl.Cl` [Compound 5f, 2,5-Bis(4-guanidino-2,6-dimethylphenyl)furan dihydrochloride], the “DNA Affinities ΔTm (AT)” value with poly dA•dT is 2.7. The “DNA Affinities ΔTm (oligo)” value with d(CGCGAATTCGCG)2 came to 1.4.

Regarding `Cl.Cl.N=C(Nc1ccc(-c2ccc(-c3ccc(NC(=N)c4ccccc4)cc3)o2)cc1)c1ccccc1` [Compound 6b, 2,5-Bis[4-(benzimidoylamino)phenyl]furan Dihydrochloride], in the assay on Candida albicans (setting [1]), the MFC came to 50 µg/mL and the minimal inhibitory concentration (MIC) was 25 µg/mL. In addition, the “DNA Affinities ΔTm (AT)” value in the assay on poly dA•dT is listed as 28.6. In the assay on d(CGCGAATTCGCG)2, the “DNA Affinities ΔTm (oligo)” value is on record as 15.0.

Turning to `Cc1cc(NC(=N)c2ccccc2)ccc1-c1ccc(-c2ccc(NC(=N)c3ccccc3)cc2C)o1` [Compound 6g, 2,5-Bis[4-(benzimidoyl)amino-2-methylphenyl]furan], in the assay on Candida albicans (setting [1]), the MFC was 6.25 µg/mL (≈ 12.9 µM) and the minimal inhibitory concentration (MIC) stood at 3.12 µg/mL (≈ 6.44 µM). For the same molecule, the “DNA Affinities ΔTm (AT)” value with poly dA•dT came out at 24.9. The “DNA Affinities ΔTm (oligo)” value in the assay on d(CGCGAATTCGCG)2 is 7.8.

Consider `Cc1cc(N=Nc2ccccn2)cc(C)c1-c1ccc(-c2c(C)cc(N=Nc3ccccn3)cc2C)o1` [Compound 6m, 2,5-Bis[2,6-dimethyl-4-(2-pyridylimino)aminophenyl]furan], for which, in the assay with Candida albicans (setting [1]), the MFC was > 100 µg/mL and the MIC is 10 µg/mL (≈ 20.6 µM). Further, in the assay on poly dA•dT, the “DNA Affinities ΔTm (AT)” value was 5.7. Besides, the “DNA Affinities ΔTm (oligo)” value in the assay on d(CGCGAATTCGCG)2 is recorded as 1.2. Further, in the assay on Aspergillus fumigatus, the MFC is > 100 µg/mL and the MIC stood at 10 µg/mL (≈ 20.6 µM).

Regarding `N=C(Nc1ccc(-c2ccc(-c3ccc(NC(=N)c4ccccc4)cc3)s2)cc1)c1ccccc1` [DB 653, 2,5-Bis[4-(benzimidoyl)aminophenyl]thiophene], the MIC with Candida albicans (setting [1]) and in the assay on Aspergillus fumigatus was > 100 µg/mL throughout. The “DNA Affinities ΔTm (AT)” value in the assay with poly dA•dT turned out to be 20.2. For the same molecule, in the assay with d(CGCGAATTCGCG)2, the “DNA Affinities ΔTm (oligo)” value is reported as 12.8.

Consider `N=C(N)Nc1ccc(-c2ccc(-c3ccc(NC(=N)N)cc3)s2)cc1` [DB 686], for which the “MTb MIC” value in the assay with M. tuberculosis H37Rv (H37Rv) is <1 µg/mL. In the assay with Candida albicans (setting [1]), the “C. albicans MFC” value was 4.17 µg/mL and the “C. albicans MIC” value is 4.17 µg/mL.

`OC(Cn1cncn1)(Cn1cncn1)c1ccc(F)cc1F` [Fluconazole, reference compound]: the “activity against C. albicans, in words” value in the assay on Candida albicans is recorded as “fungistatic”.
